Experimental data taken from patent publication US11149052B2, “2′3′-cyclic dinucleotides” (Institute of Organic Chemistry and Biochemistry, ASCR, V.V.I, priority 2018, dated 2021).
Like-named read-outs stand apart in the source and are kept apart here.

How the values were obtained:
[1] = target: T1, AQ STING (truncated human STING G230A-R293Q allelic form) (Homo sapiens, UniProt Q86WV6, G230A/H232R/R293Q); assay: Differential Scanning Fluorimetry with AQ STING; format: binding; settings: for ΔTm at 150 µM: read-out: DSF ΔTm (° C.) AQ STING
T1 construct: truncated human WT STING or AQ STING (amino acid residues 140-343); 8xHis (N, cleaved yes); SUMO (N, cleaved yes); made in house; host or cells: E. coli Rosetta-gami B (DE3)
T1 sequence (Q86WV6 140-343 G230A/H232R/R293Q): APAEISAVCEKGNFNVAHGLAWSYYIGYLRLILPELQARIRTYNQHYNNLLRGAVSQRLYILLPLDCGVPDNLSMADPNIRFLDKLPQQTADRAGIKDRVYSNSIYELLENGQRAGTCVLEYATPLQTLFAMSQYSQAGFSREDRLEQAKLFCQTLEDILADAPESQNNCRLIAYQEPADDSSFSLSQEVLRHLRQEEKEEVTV
Description: (§1) Purified PCR products were cleaved with restriction enzymes BamHI (cat. #R0136S, NEB, Ipswich, USA) and NotI (cat. #R0189S, NEB, Ipswich, USA) and cloned into the pSUMO vector linearized with the identical enzymes.
(§2) DNase I (cat. #D5025, Sigma Aldrich, Czech Republic) and RNase A (cat. #R6513, Sigma Aldrich, Czech Republic) were added (final concentration […]) together with MgCl2 (final concentration 5 mmol·l^−1) to the homogenate and bacteria were lysed using French Press G-M™ High-Pressure Cell Press Homogenizer (1500 psi, 3 cycles). […] The resin was poured into a chromatography column, washed with 50 ml buffer A (50 mmol·l^−1 TrisCl (pH 8.0), 800 mmol·l^−1 NaCl, 3 mmol·l^−1β-mercaptoethanol; 10% glycerol; 20 mmol·l^−1 imidazole) and 8-His-SUMO tagged STING proteins were eluted with 15 ml buffer A containing 300 mmol·l^−1 imidazole. […] Proteins were concentrated with Amicon® Ultra-15 10 K device (cat. #UFC901008, Merck Millipore, Billerica, USA) and flash frozen in liquid N2.
(§3) Differential Scanning Fluorimetry with WT STING and AQ STING
(§4) 20 μL solutions of the reaction mixtures were pipetted in triplicates into 96 well optical reaction plates and thermal denaturation of samples were performed on real time PCR cycler (LightCycler® 480 Instrument II—Roche, Base^1, Switzerland). The first derivative of the thermal denaturation curves was performed to calculate denaturing temperatures of STING-CDN complexes and STING apoproteins. The thermal shift for each CDN was calculated by subtracting the average denaturing temperature of STING apoprotein from the average denaturing temperature of STING CDN complex.

[2] = target: human wild type STING (WT STING) (Homo sapiens, UniProt Q86WV6, H232R); assay: Digitonin assay using 293T wtSTING-FL reporter cells (ISRE firefly luciferase reporter); format: cell-based; settings: 293T wtSTING-FL cells; 30 min in Digitonin buffer, then 5 hours; luciferase read-out; 8-point dose-response curve; read-out: Digitonin assay EC50 (μmol · l^−1) WT STING
human wild type STING (WT STING), sequence (Q86WV6 whole entry H232R): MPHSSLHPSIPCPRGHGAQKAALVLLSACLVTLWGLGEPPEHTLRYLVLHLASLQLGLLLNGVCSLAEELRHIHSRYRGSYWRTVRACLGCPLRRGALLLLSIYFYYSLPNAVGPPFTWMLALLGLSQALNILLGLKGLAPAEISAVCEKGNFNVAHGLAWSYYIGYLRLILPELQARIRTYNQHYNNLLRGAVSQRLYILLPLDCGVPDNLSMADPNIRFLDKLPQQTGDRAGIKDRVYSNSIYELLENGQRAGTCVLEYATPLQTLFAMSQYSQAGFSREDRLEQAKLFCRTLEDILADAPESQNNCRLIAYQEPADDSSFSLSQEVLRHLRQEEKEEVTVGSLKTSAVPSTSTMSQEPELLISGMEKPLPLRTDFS
Excerpt: Two complementary oligonucleotides of the sequence […] […] […] […] […] The oligonucleotides were mixed in equal molar amounts, hybridized, and cleaved by restriction endonucleases HindIII (cat. #. R0104S, NEB, Ipswich, USA) and BglII (cat. #R0144S, NEB, Ipswich, USA). Ultimately, they were ligated into plasmid pGL4.27 (cat. #E6651, Promega, Madison, USA) linearized with the same enzymes. As result the sequence with four ISRE sites was placed upstream of the minimum promoter of firefly luciferase reporter gene.
After 5 minutes incubation at room temperature (RT), 250 μL of the mixture was added dropwise to the cells in one well.
Transfected cells were seeded onto poly-D-lysine coated six well plates at density 50,000 cells per 1 cm^2 in DMEM medium with high glucose containing 10% heat inactivated FBS, 30 μg/mL blasticidin (cat. #ant-bl-05, InvivoGen, San Diego, USA), 0.06 mg/ml Penicillin G and 0.1 mg/ml Streptomycin Sulfate (both cat. #. L0018, Biowest, Riverside, USA). The medium was replenished every 3-4 days until visible colonies of cells resistant to blasticidin were formed.
Blasticidin resistant cells stably expressing WT STING were further transfected with […] plasmid following the same procedure as described above. […] Homogeneous culture of stably double transfected cells was prepared by limiting dilution of cells in 96 well plates and wells with cells were selected that originated from a single cell.
The medium was removed next day and three fold serial dilutions of compounds in Digitonin buffer containing 50 mmol·l^−1 HEPES (cat. #H3375, Sigma Aldrich, Czech Republic) pH 7.0, 100 mmol·l^−1 KCl, 3 mmol·l^−1 MgCl2, 0.1 mmol·l^−1 DTT (cat. #D0632, Sigma Aldrich, Czech Republic), 85 mmol·l^−1 Sucrose (cat. #S7903, Sigma Aldrich, Czech Republic), 0.2% BSA (cat. #A2153, Sigma Aldrich, Czech Republic), 1 mmol·l^−1 ATP (cat. #A1852, Sigma Aldrich, Czech Republic), 0.1 mmol·l^−1 GTP (cat. #G8877, Sigma Aldrich, Czech Republic), and 10 μg/mL Digitonin A (cat. #D141, Sigma Aldrich, Czech Republic) were added to the cells. The buffer was removed after 30 minutes incubation at 37° C. with 5% CO2, the cells were washed once with 100 μl of cultivation medium, and 100 IA of medium was added to each well. The plates with cells were incubated for 5 hours at 37° C. with 5% CO2, 50 μl of the medium was removed and 30 μl of ONE-Glo™ Luciferase Assay System reagent (cat. #E6120, Promega, Madison, USA) was added to each well. Luminesce was read on Synergy H1 (Biotek, Winooski, USA).

[3] = target: T2, WT STING (truncated human WT STING protein) (Homo sapiens, UniProt Q86WV6, H232R); assay: Differential Scanning Fluorimetry with WT STING; format: binding; settings: for ΔTm at 150 µM: read-out: DSF ΔTm (° C.) WT STING
T2 construct: truncated human WT STING or AQ STING (amino acid residues 140-343); 8xHis (N, cleaved yes); SUMO (N, cleaved yes); made in house; host or cells: E. coli Rosetta-gami B (DE3)
T2 sequence (Q86WV6 140-343 H232R): as the sequence (Q86WV6 140-343 G230A/H232R/R293Q) above, with A91G, Q154R counted along it
Description: as §1, §2, §3, §4

[4] = thermal shift vs apoprotein, 150 μM CDN, 0.1 mg/ml STING protein, SYPRO Orange

Question: For `Nc1nc2c(ncn2[C@@H]2O[C@@H]3COP(=O)(O)CO[C@H]4[C@@H](O)[C@H](n5cnc6c(N)ncnc65)O[C@@H]4COP(=O)(O)O[C@@H]2[C@@H]3O)c(=O)[nH]1` [Example 5, (1R,6R,8R,9R,10S,16R,18R,19R)-18-(2-amino-6-oxo-6,9-dihydro-1H-purin-9-yl)-8-(6-amino-9H-purin-9-yl)-3,9,13,19-tetrahydroxy-2,4,7,11,14,17-hexaoxa-3λ^5,13λ^5-diphosphatricyclo[14.2.1.0^6,^10]nonadecane-3,13-dione], which ΔTm at 150 µM [1, 4] is on record?
Answer: Its ΔTm at 150 µM is 23.2 °C.

Question: What about the EC50 [2] of the same compound?
Answer: Its EC50 is 14 nM.

Question: What about the ΔTm at 150 µM [3, 4] of the same compound?
Answer: Its ΔTm at 150 µM is 16.7 °C.

Question: Which results are given for `Nc1ncnc2c1ncn2[C@@H]1O[C@@H]2COP(=O)(O)O[C@@H]3[C@H](O)[C@@H](COP(=O)(O)CO[C@H]2[C@@H]1O)O[C@H]3n1cnc2c(N)ncnc21` [Example 11, (1R,6R,8R,9S,10S,16R,18R,19R)-8,18-bis(6-amino-9H-purin-9-yl)-3,9,13,19-tetrahydroxy-2,4,7,11,14,17-hexaoxa-3λ^5,13λ^5-diphosphatricyclo[14.2.1.0^6,^10]nonadecane-3,13-dione]?
Answer: ΔTm at 150 µM [1, 4]: 9.1 °C; EC50 [2]: 2500 nM; ΔTm at 150 µM [3, 4]: 2.3 °C

Question: Which results are given for `Nc1nc(N)c2ncn([C@@H]3O[C@@H]4COP(=O)(O)O[C@@H]5[C@H](O)[C@@H](COP(=O)(O)CO[C@H]4[C@H]3F)O[C@H]5n3cnc4c(N)ncnc43)c2n1` [Example 26, (1R,6R,8R,9R,10R,16R,18R,19R)-18-(6-amino-9H-purin-9-yl)-8-(2,6-diamino-9H-purin-9-yl)-9-fluoro-3,13,19-trihydroxy-2,4,7,11,14,17-hexaoxa-3λ^5,13λ^5-diphosphatricyclo[14.2.1.0^6,^10]nonadecane-3,13-dione]?
Answer: ΔTm at 150 µM [1, 4]: 7.5 °C; EC50 [2]: 580 nM; ΔTm at 150 µM [3, 4]: 2.1 °C

Question: Which results are given for `Nc1nc2c(ncn2[C@@H]2O[C@@H]3COP(=O)(O)CO[C@@H]4[C@H](O)[C@@H](COP(=O)(O)CO[C@H]3[C@H]2O)O[C@H]4n2cnc3c(=O)[nH]c(N)nc32)c(=O)[nH]1` [Example 9, (1R,7R,9R,10R,11S,17R,19R,20R)-9,19-bis(2-amino-6-oxo-6,9-dihydro-1H-purin-9-yl)-4,10,14,20-tetrahydroxy-2,5,8,12,15,18-hexaoxa-4λ^5,14λ^5-diphosphatricyclo[15.2.1.0^7,^11]icosane-4,14-dione]?
Answer: ΔTm at 150 µM [1]: 1.1 °C; EC50 [2]: > 50000 nM; ΔTm at 150 µM [3]: 0.3 °C

Question: How did the ΔTm at 150 µM [1, 4] turn out when `Nc1nc2c(ncn2[C@@H]2O[C@@H]3COP(=O)(O)CO[C@H]4C[C@H](n5cnc6c(N)ncnc65)O[C@@H]4COP(=O)(O)O[C@@H]2[C@@H]3F)c(=O)[nH]1` [Example 20, (1S,6R,8R,10S,16R,18R,19R)-18-(2-amino-6-oxo-6,9-dihydro-1H-purin-9-yl)-8-(6-amino-9H-purin-9-yl)-19-fluoro-3,13-dihydroxy-2,4,7,11,14,17-hexaoxa-3λ^5,13λ^5-diphosphatricyclo[14.2.1.0^6,^10]nonadecane-3,13-dione] was run?
Answer: The ΔTm at 150 µM was 23.5 °C.

Question: What about the EC50 [2] of the same compound?
Answer: The EC50 was 5 nM.

Question: What about the ΔTm at 150 µM [3, 4] of the same compound?
Answer: Its ΔTm at 150 µM is 17.2 °C.

Question: `Nc1nc2c(ncn2[C@@H]2O[C@@H]3COP(=O)(O)O[C@@H]4[C@H](O)[C@@H](COP(=O)(O)CO[C@H]3[C@H]2O)O[C@H]4n2cnc3c(N)ncnc32)c(=O)[nH]1` [Example 2, (1R,6R,8R,9R,10S,16R,18R,19R)-8-(2-amino-6-oxo-6,9-dihydro-1H-purin-9-yl)-18-(6-amino-9H-purin-9-yl)-3,9,13,19-tetrahydroxy-2,4,7,11,14,17-hexaoxa-3λ^5,13λ^5-diphosphatricyclo[14.2.1.0^6,^10]nonadecane-3,13-dione] was tested. Which ΔTm at 150 µM [1, 4] did it give?
Answer: The ΔTm at 150 µM was 8.8 °C.

Question: What about the EC50 [2] of the same compound?
Answer: Its EC50 is 1200 nM.

Question: What about the ΔTm at 150 µM [3, 4] of the same compound?
Answer: The ΔTm at 150 µM was 1.4 °C.

Question: With `Nc1nc2c(ncn2[C@@H]2O[C@@H]3COP(=O)(O)CO[C@H]4C[C@H](n5cnc6c(N)ncnc65)O[C@@H]4COP(=O)(O)O[C@@H]2[C@@H]3O)c(=O)[nH]1` [Example 15, (1R,6R,8R,10S,16R,18R,19R)-18-(2-amino-6-oxo-6,9-dihydro-1H-purin-9-yl)-8-(6-amino-9H-purin-9-yl)-3,13,19-trihydroxy-2,4,7,11,14,17-hexaoxa-3λ^5,13λ^5-diphosphatricyclo[14.2.1.0^6,^10]nonadecane-3,13-dione] as the compound, how does the ΔTm at 150 µM [1, 4] read?
Answer: Its ΔTm at 150 µM is 19.2 °C.

Question: What about the EC50 [2] of the same compound?
Answer: The EC50 was 10 nM.

Question: And the ΔTm at 150 µM [3, 4]?
Answer: Its ΔTm at 150 µM is 14.4 °C.

Question: How did the “DSF ΔTm (° C.) AQ STING” value [1, 4] turn out when `Nc1nc2c(ncn2[C@@H]2O[C@@H]3COP(=O)(O)O[C@H]4[C@@H](O)[C@H](n5cnc6c(=O)[nH]c(N)nc65)O[C@@H]4COP(=O)(O)O[C@H]3[C@H]2O)c(=O)[nH]1` [3′3′-c-di-GMP, reference compound] was run?
Answer: Its value is 7.7 °C.

Question: What about the EC50 [2] of the same compound?
Answer: Its EC50 is 5800 nM.

Question: What about the “DSF ΔTm (° C.) WT STING” value [3, 4] of the same compound?
Answer: Its value is 2.6 °C.

Question: With `Nc1ncnc2c1ncn2[C@@H]1O[C@@H]2COP(=O)(O)CO[C@@H]3[C@@H](O)[C@@H](COP(=O)(O)CO[C@@H]2[C@H]1O)O[C@H]3n1cnc2c(N)ncnc21` [Example 12, (1R,7R,9R,10R,11R,17R,19R,20S)-9,19-bis(6-amino-9H-purin-9-yl)-4,10,14,20-tetrahydroxy-2,5,8,12,15,18-hexaoxa-4λ^5,14λ^5-diphosphatricyclo[15.2.1.0^7,^11]icosane-4,14-dione] as the compound, how does the ΔTm at 150 µM [1, 4] read?
Answer: Its ΔTm at 150 µM is 0 °C.

Question: And the EC50 [2]?
Answer: The EC50 was greater than 50000 nM.

Question: And the ΔTm at 150 µM [3, 4]?
Answer: The ΔTm at 150 µM was 0 °C.

Question: `Nc1nc2c(ncn2[C@@H]2O[C@@H]3COP(=O)(O)O[C@@H]4[C@H](O)[C@@H](COP(=O)(O)CO[C@H]3[C@H]2F)O[C@H]4n2cnc3c(N)ncnc32)c(=O)[nH]1` [Example 14, (1R,6R,8R,9R,10R,16R,18R,19R)-8-(2-amino-6-oxo-6,9-dihydro-1H-purin-9-yl)-18-(6-amino-9H-purin-9-yl)-9-fluoro-3,13,19-trihydroxy-2,4,7,11,14,17-hexaoxa-3λ^5,13λ^5-diphosphatricyclo[14.2.1.0^6,^10]nonadecane-3,13-dione] was tested. Which ΔTm at 150 µM [1, 4] did it give?
Answer: The ΔTm at 150 µM was 14.2 °C.

Question: And the EC50 [2]?
Answer: The EC50 was 80 nM.

Question: And the ΔTm at 150 µM [3, 4]?
Answer: The ΔTm at 150 µM was 6.7 °C.

Question: What does the source list for `Nc1ncnc2c1ncn2[C@@H]1O[C@@H]2COP(=O)(O)O[C@@H]3[C@H](F)[C@@H](COP(=O)(O)CO[C@H]2[C@H]1F)O[C@H]3n1cnc2c(=O)[nH]cnc21` [Example 24]?
Answer: ΔTm at 150 µM [1, 4]: 25.7 °C; EC50 [2]: 20 nM; ΔTm at 150 µM [3, 4]: 20.4 °C
